Here are results for five molecules from patent US20230390371A1, “ANTI-TUMOR IMMUNITY INDUCES THE PRESENTATION OF ABERRANT PEPTIDES” (STICHTING HET NEDERLANDS KANKER INSTITUUT-ANTONI VAN …, priority 2020, published 2023).

“Also recorded” adds a separate entry of the source. Where a SMILES comes first, the peptide text is derived from it. The star is where a group is joined. Cbz = O=C(OCc1ccccc1)*

What all share (format): cell-based, human
For one assay, the system named is 12T cells. The assay is described as follows: Ribosome profiling with diricore / bump analysis. The note with it: IFNγ+IDOi. From the text: Preprocessing of FASTQ files consisted of adapter removal using cutadapt (available at doi.org/10.14806/ej.17.1.200) with the parameters (--quality-base=33-O7-e 0.15-m 20-q 5) and removal of rRNA and tRNA contaminants by means of alignment against a reference (rRNA reference data from GENCODE^61 v19: rRNA, MT_RNA, rRNA_pseudogene, and tRNA reference data from GtRNAdb) using bowtie2^62 with parameters (--seed 42−p1—local).
The actual alignment of pre-processed FASTQ files was done with TopHat2^63 and Bowtie2^62 against GRCh37/ hg19 and GENCODE v19/BASIC transcript with Ensembl coordinates using parameters (seed 42-n 2-m 1 --no-novel-juncs --no-novel-indels --no-coverage-search --segment-length 25). In a subsequent step the primary aligned reads filtered for a minimum mapping quality of 10. […]
The reads (FASTQ) from Riboseq experiments were aligned to human transcript assembly (gencode v19) after removal of low quality reads and the reads that align to tRNA and rRNA (refer methods section—Diricore). […]
BAM files were converted to BED using BEDTOOLS 68 and later file formats were edited using PERL scripts. Each gene was divided into 100 windows of equal length, and read (separately for every sample) at each window were quantified using BEDTOOLS. The array of reads, logged (base 2), were normalized between 0 to 1. […]

The subject of the next assay is MD55A3 melanoma cells. The experiment in a line: V5-ATF4(1-63)-His frameshift reporter, His-tag pulldown and V5-tag immunoblotting. The conditions noted are these: IFNγ+IDOi, MD55A3 reporter cells. From the text: FIG. 3: W-Bumps are associated with disordered out-of-frame peptides, and shortage in tryptophan leads to frameshifting events. • (a) Bar-plots depicting total occurrences of alpha-helices, beta-sheets and turns for tryptophan-containing peptide sequences corresponding to W-Bumps (left) and all remaining peptide sequences (middle), and the difference in percentages (right). […] Tryptophan shortage, on the other hand, can lead to stalling on the tryptophan codon (bottom left panel), or could in theory induce frameshifting events, leading to aberrant peptide production (lower right panel). Since secondary structure of growing polypeptide chains is attained in the lower tunnel of the ribosome, the loss of an a-helical secondary structure in this tunnel could hamper ribosomal progression. (c) Line-plots depicting the probability of disorderedness of peptide sequences. The position of the tryptophan is indicated by the dashed line. […] The green line represents the average probability of disorderedness of all peptides (‘All tryptophan codons’, n=36508). A group of outlier candidates that show relatively ordered out-of-frame peptide sequences were selected for comparisons (‘Selected tryptophan codons’, n=94, red). (d) Line-plots depicting mean frequency of RPFs at single nucleotide resolution across all tryptophans (green) and the selected outlier set (red) from panel 3c. […]
In general terms: Immunoblotting shows a protein as a band on a membrane.

The subject of another assay is MD55A3 cells. The experiment in a line: Proteomic analysis of tryptophan-containing proteins with IFNγ and proteasome inhibition. The conditions noted are these: combined treatment with IFNγ and MG132. The protocol: Frozen MD55A3 cell pellets were lysed, reduced and alkylated in heated guanidine (GuHCl) lysis buffer as described by Jersie-Christensen et al.^70. Proteins were digested with Lys-C (Wako) for 2 h at 37° C., enzyme/substrate ratio 1:100. The mixture was then diluted to 2 M GuHCl and digested overnight at 37° C. with trypsin (Sigma) in enzyme/substrate ratio 1:50. Digestion was quenched by the addition of TFA (final concentration 1%), after which the peptides were desalted on a Sep-Pak C18 cartridge (Waters, Massachusetts, USA). Samples were vacuum dried and stored at −80° C. until LC-MS/MS analysis.
Peptides were reconstituted in 2% formic acid and analyzed by nano LC-MS/MS on an Q Exactive HF-X Hybrid Quadrupole-Orbitrap Mass Spectrometer equipped with an EASY-NLC 1200 system (Thermo Scientific). […]
RAW files were analyzed by Proteome Discoverer (version 2.3.0.523, Thermo Scientific) using standard settings. […] Differentially expressed proteins were determined using a t-test (threshold: FDR 1% or FDR 5% and S0: 0.13). […]
To look at the downstream consequences of W-Bump formation, we assessed the impact of W-Bumps on protein expression by proteomic analysis following IFNγ induction. We first analyzed the differential protein expression in IFNγ-treated versus control cells (data not shown) and grouped proteins according to the number of tryptophan residues they contain (FIG. 2l). […]

For assay [1], the system named is peripheral blood mononuclear cells from healthy donors. The experiment in a line: Immunogenicity in peripheral blood mononuclear cells from healthy donors.

For the molecule `Cn1cc(C[C@H](N)C(=O)O)c2ccccc21` [IDOi, 1-Methyl-L-tryptophan], in the assay on 12T cells, the “accumulation of RPFs at the W-Bumps region / bumps” value was “rescued; also recorded: completely abolished”; the “global redistribution of RPFs towards the translation initiation sites and enrichment of tryptophan codon signal at A-site” value is recorded as “negated”. The IFNγ-induced frameshifting entry in the assay with MD55A3 melanoma cells is listed as “prevented”.

For the molecule `CC(C)C[C@@H](C=O)NC(=O)[C@H](CC(C)C)NC(=O)[C@H](CC(C)C)NC(=O)OCc1ccccc1` [MG132] (Cbz-Leu-Leu-Leu-aldehyde), in the assay with MD55A3 cells, the “restoration of reduced levels of high-tryptophan containing proteins” value was “did not restore”.

Take “GLLETHPALLL (SRSF3-based peptide) [SEQ ID NO:62, SRSF3-derived peptide presented by MDA-MB-231]”: the immunogenicity result in assay [1] is reported as “showed immunogenicity”.

Take “TLVEDLLEV (RFX1-based peptide) [SEQ ID NO:58, RFX1-derived peptide presented by MDA-MB-231]”: in assay [1], the immunogenicity entry is given as “showed immunogenicity”.

Regarding “TVIGTLLEI (RHOBTB3-based peptide) [SEQ ID NO:61, RHOBTB3-derived peptide presented by MDA-MB-231]”, in assay [1], the immunogenicity entry is on record as “showed immunogenicity”.
